Measurements taken from patent US20220228124A1, “Three-Dimensional Cross-Linked Scaffolds Of Peripheral Blood Plasma And Their Use” (SANFORD HEALTH, priority 2019, published 2022).

Experiments:
[1] = tested on: CD8+ T cell infiltration (PD-L1 blockade); test: CD8+ T cell infiltration into 3DeTME matrices seeded with BCa cells; format: cell-based, human; settings: 3DeTME tumorous (1.5% O2); 5 μM for the first 4 days; read at day 7
Experimental: Methods: 3DeTME cultures were grown with cancer cells for 4 days, while being exposed to variable O2 environments (21% and 1.5% O2). Peripheral blood mononuclear cells (PBMCs) were incorporated at day 4 as a cell suspension in the medium added on the top of the matrix, while being exposed to the same O2 environment up to day 7, (FIG. 5A). Oxygen partial pressure (pO2) levels were measured in BCa cell-seeded 3DeTME matrices incubated under variable O2 environments (21% and 1.5% O2) after 0, 2, 4 and 7 days of culture. 3DeTME scaffolds containing BCa cells were profiled along the z-direction with an oxygen microsensor (Needle-Type Oxygen Microsensor NTH-PSt7, PreSens, Regensburg, Germany) and a manual micromanipulator (FIG. 5B). Briefly, to record oxygen pressure, the sensor was introduced into the geometric center (3 measure points) of the 3DeTME and moved from the border between the media and 3DeTME (top) in 10 μm steps towards the bottom of the well plate, as illustrated in FIG. 5C. […]
Methods: Differences in lymphocyte infiltration into 3DeTME scaffolds as a result of different oxygen content were assessed. PBMCs were incorporated as cell suspension in the medium added on the top of the matrix at day 4 and analyzed at day 7. […] Mean absolute numbers of CD3+, CD4+, CD8+ and CD19+ cells (normalized to beads) were determined in each experimental group. […]

[2] = tested on: fibrin degradation in the scaffold; test: 3DeTME scaffold integrity and stability (weight) with antifibrinolytic agents; parameters: species or system human
Experimental: (§1) Methods: 3DeTME cultures are formed through the cross-linking of fibrinogen found naturally in plasma. Cross-linking time was assessed by measuring the time necessary to achieve matrix cross-linking using three relevant cross-linkers of the blood coagulation process including Thrombin (0-5 mg/ml), CaCl2 (0-5 mg/ml), and Factor XIII (0-6 mg/ml). The stabilization effects of preventing fibrin degradation and stability improvement in the scaffold was assessed by surveying several chemical antifibrinolytic agents including tranexamic acid (AMCHA) (0-10 mg/ml), Aprotinin ([…]), epsilon-aminocaproic acid (EACA) (0-2.5 mg/ml), and 4-aminomethylbenzoic acid (PAMBA) (0-2.5 mg/ml). The stability of the scaffold was studied by measuring each scaffold weight at day 0 and again measuring scaffold weight at the conclusion of a 3 week time period. 3DeTME culture scaffold structure and morphology was analyzed with scanning electron microscopy (SEM) using a FEI Quanta™ 450 Scanning Electron Microscope at multiple magnifications. The stiffness of the scaffolds was measured by atomic force microscopy (AFM). The Young's modulus was estimated by fitting a modified Hertz model onto the AFM indentation curve using the built in function of AFM software (Asylum Research). Plasma from cancer patients and healthy subjects was analyzed for fibrinogen content through the clotting method of Clauss. The Clauss fibrinogen assay is a quantitative, clot-based, functional assay. The assay measures the ability of fibrinogen to form fibrin clot after being exposed to a high concentration of purified thrombin. Briefly, plasma samples were loaded into the STA-R™ Evolution Expert Series Hemostasis System (Diagnostica Stago Inc., Parsippany, N.J.) and automated testing was carried out by the analyzer. […] 3DeTME culture supernatants were collected and analyzed by a C-Series Custom Cytokine Antibody Array (RayBiotech Inc., Norcross, Ga.) according to the instructions provided by the manufacturer. […] The chemiluminescence signal intensity of each spot was quantified by densitometric analysis (VisionWorks Software). […]

[3] = tested on: fibrinogen found naturally in plasma; test: Cross-linking time of plasma into 3DeTME matrix; format: biochemical, human
Experimental: as §1

[4] = tested on: three breast cancer (BCa) cell lines; test: 3DeTME drug screening, relative cell count and GR values; format: cell-based, human; settings: day 7; for response among the BCa cell lines: 3DeTME, 0.1 nM-300 μM
Experimental: (§2) Methods: Three breast cancer (BCa) cell lines were previously labeled with DiD and incorporated in 3DeTME. Half a day after plating, cells were treated with a DMSO control (γCtrl) and increasing concentrations 0.1 nM-300 μM of seven standard-of-care chemotherapeutic drugs including Methotrexate (MTX), Paclitaxel (PTX), Capecitabine (CAP), Cyclophosphamide Monohydrate (CYCLO), Carboplatin (CARBO), Epirubicin Hydrochloride (EPI), and Docetaxel (DTX). Treatments were added on top of 3DeTME in order to simulate drug diffusion into a tumor. Treatments were refreshed at day 4 and BCa cells were retrieved from the different cultures for analysis at day 0.5 (γ0) and day 7. Samples were prepared in PBS for flow cytometry by adding counting beads (424902, Biolegend, CA) in addition to SytoxTM green dead cell stain (excitation 504 nm, emission 523 nm) ([…], Thermo Fisher Scientific, MA) for viability to each sample. BCa cells were identified by gating live cells with a DiD+ signal using the FL4 channel on BD AccuriTM C6 instrument (CFlow Software) (BD Biosciences). A minimum of 5×103 events was acquired per sample and BCa cell counts were acquired and data was analyzed using the FlowJoTM v10 (Ashland, Oreg.) software. Relative cell count and Growth rate (GR) values. The GR values show the partial inhibition effect of the drug when it achieves GR values from 0 to 1, with the cytostatic effect being represented when the value is equal to 0 and the cytotoxic effect being represented when it lies between 0 and -1.

[5] = tested on: EpCAM+ BCa cells from patient biopsies; test: Survival of primary patient BCa cells in matched-plasma 3DeTME cultures; format: cell-based, human; settings: 7 days
Experimental: Methods: To evaluate the association between different variables, correlation tests were performed using the ggpubr R™ package. The Pearson correlation (r) was assessed in order to measure the linear dependence between two variables after confirmation of a normal distribution of the data. In order to assess the predictive value of the drug response metrics obtained in the 3DeTME assays with cell lines, we compared them with metric data obtained from literature relevant for 2D models (IC50) and other 3D models (IC50), as well as effective concentrations in patients from phase I or II studies that examined the pharmacokinetics of the tested chemotherapies (steady state concentration, Css). A scatterplot correlation graph allowed us to establish the strength, direction and form of the relationship between the in vitro models and the Css clinical data, with Pearson correlation coefficients (r) that were calculated to measure the strength of those relationships. […] Small organoids and single cells cultures were grown and analyzed at days 0.5 (γ0), 3, and 7. […] BCa cell counts were acquired and data was analyzed using FlowJo™ v10 (Ashland, Oreg.). Data was normalized to a predetermined number of counting beads, the proliferation of each condition (fold of γ0) and survival (% of control) was calculated and compared.

MDA-MB-231 = test: 3DeTME drug screening, relative cell count and GR values; format: cell-based, human; settings: 0.1 nM-300 μM, day 7
Experimental: as §2

MCF7 = test: as above; format: cell-based, human; settings: 0.1 nM-300 μM, day 7
Experimental: Methods: Three breast cancer (BCa) cell lines were previously labeled with DiD and incorporated in 3DeTME. Half a day after plating, cells were treated with a DMSO control (γCtrl) and increasing concentrations 0.1 nM-300 μM of seven standard-of-care chemotherapeutic drugs including Methotrexate (MTX), Paclitaxel (PTX), Capecitabine (CAP), Cyclophosphamide Monohydrate (CYCLO), Carboplatin (CARBO), Epirubicin Hydrochloride (EPI), and Docetaxel (DTX). Treatments were added on top of 3DeTME in order to simulate drug diffusion into a tumor. Treatments were refreshed at day 4 and BCa cells were retrieved from the different cultures for analysis at day 0.5 (γ0) and day 7. Samples were prepared in PBS for flow cytometry by adding counting beads (424902, Biolegend, CA) in addition to SytoxTM green dead cell stain (excitation 504 nm, emission 523 nm) ([MUT], Thermo Fisher Scientific, MA) for viability to each sample. BCa cells were identified by gating live cells with a DiD+ signal using the FL4 channel on BD AccuriTM C6 instrument (CFlow Software) (BD Biosciences). A minimum of 5×103 events was acquired per sample and BCa cell counts were acquired and data was analyzed using the FlowJoTM v10 (Ashland, Oreg.) software. Relative cell count and Growth rate (GR) values. […]

[6] = 5 and 10 mg/ml, weight at day 24 vs day 0

Question: For “Durvalumab: selective, high-affinity human IgG1 mAb that blocks programmed cell death ligand-1 (PD-L1) binding to PD-1”, which CD8 infiltration [1] is on record?
Answer: Its CD8 infiltration is “did reverse CD8 infiltration”.

Question: What does the source list for `NC[C@H]1CC[C@H](C(=O)O)CC1` [tranexamic acid, trans-4-(aminomethyl)cyclohexanecarboxylic acid]?
Answer: weight gain as share of total weight [2, 6]: around 10%; weight gain of 3D culture [2, 6]: about 24 mg

Question: For `[Ca+2].[Cl-].[Cl-]` [CaCl2, calcium chloride], which “cross-linking time (fastest)” value ([3]; cross-linker at 1 mg/ml) is on record?
Answer: Its value is 4 min.

Question: How did the integrity benefit ([2]; at the concentrations tested (0-2.5 mg/ml), day 24 vs day 0) turn out when `NCCCCCC(=O)O` [epsilon-aminocaproic acid] was run?
Answer: Its integrity benefit is “not able to sustain an integrity benefit”.

Question: How did the “type of drug effect (GR value)” value ([4]; over the concentrations tested) turn out when `CCCCCOC(=O)Nc1nc(=O)n([C@@H]2O[C@H](C)[C@@H](O)[C@H]2O)cc1F` [capecitabine, Capecitabine] was run?
Answer: The value was “cytostatic”.

Question: How did the “cross-linking time (fastest)” value ([3]; cross-linker at 6 mg/ml, activated by incorporating calcium) turn out when “Factor XIII: cross-linker of the blood coagulation process, required activation by calcium” was run?
Answer: The value was “over 40 min”.

Question: How did the activity at 45 µM ([5]; Homo sapiens, 168 h, "responder" patient, read-out: survival of BCa cells (% of control)) turn out when `CC(C)(C#N)c1cc(Cn2cncn2)cc(C(C)(C)C#N)c1` [Arimidex] was run?
Answer: The activity at 45 µM was 17%.

Question: And the “survival of BCa cells” value ([5]; patient with "resistance" clinical outcome, 45 μM)?
Answer: Its value is “little to no effect”.

Question: Which results are given for `N.N.O=C([O-])C1(C(=O)[O-])CCC1.[Pt+2]` [carboplatin, Carboplatin]?
Answer: response among the BCa cell lines [4]: heterogeneous response; sensitivity of the cell line relative to the other BCa cell lines (MDA-MB-231): most sensitive

Question: Which “response among the BCa cell lines” value [4] does the source give for `CN(Cc1cnc2nc(N)nc(N)c2n1)c1ccc(C(=O)N[C@@H](CCC(=O)O)C(=O)O)cc1` [methotrexate, Methotrexate] here?
Answer: The value was “heterogeneous response”.

Question: And the “sensitivity of the cell line relative to the other BCa cell lines” value (MCF7)?
Answer: Its value is “most resistant”.

Question: How did the cross-linking time ([3]; cross-linker at 5 mg/ml) turn out when thrombin was run?
Answer: Its cross-linking time is 5 min.
